From patent publication US20240228543A1, “CYCLIC PEPTIDE INHIBITORS OF USP22” (THE JOHNS HOPKINS UNIVERSITY, priority 2021, published 2024) come the findings set out here.

Positions of bridges follow the written chain, without caps; N, C: chain ends. Non-standard residues stand in square brackets, D forms with d. Residues, ends and D or L forms follow the SMILES beside them.

For one test, the target named is T1, USP30 (Homo sapiens, UniProt Q70CQ3).
T1 sequence (Q70CQ3 1-517): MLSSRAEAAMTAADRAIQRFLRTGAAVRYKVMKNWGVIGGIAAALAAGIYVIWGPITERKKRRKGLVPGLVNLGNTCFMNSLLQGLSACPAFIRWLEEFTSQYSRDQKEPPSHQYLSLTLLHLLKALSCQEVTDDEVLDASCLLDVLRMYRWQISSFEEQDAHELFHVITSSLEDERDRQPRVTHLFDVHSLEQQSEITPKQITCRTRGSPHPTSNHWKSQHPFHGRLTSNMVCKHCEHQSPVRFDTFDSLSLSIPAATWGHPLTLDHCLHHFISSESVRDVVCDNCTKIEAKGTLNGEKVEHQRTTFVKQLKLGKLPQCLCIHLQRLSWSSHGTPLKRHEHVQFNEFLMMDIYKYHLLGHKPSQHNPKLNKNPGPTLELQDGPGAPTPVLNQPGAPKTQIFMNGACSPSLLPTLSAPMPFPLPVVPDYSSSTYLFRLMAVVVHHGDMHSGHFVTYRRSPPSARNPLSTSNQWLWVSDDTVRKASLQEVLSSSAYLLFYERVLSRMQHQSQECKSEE
Put plainly: End-point Ub-AMC cleavage by off-target DUB USP30. To be noted: 1 μM hD1, 200 nM USP30, 1 μM Ub-AMC. Format: biochemical. An excerpt:
USP7 and USP30 are USP DUBs and belong to the same structural family as USP22, while CYLD belongs to the structurally distinct ubiquitin C-terminal hydrolase (UCH) family of DUBs. […]

In a further test the target is T2, USP27x (Homo sapiens, UniProt A6NNY8).
T2 construct: purchased Ubiquigent (DUBprofiler panel)
T2 sequence (A6NNY8 1-438): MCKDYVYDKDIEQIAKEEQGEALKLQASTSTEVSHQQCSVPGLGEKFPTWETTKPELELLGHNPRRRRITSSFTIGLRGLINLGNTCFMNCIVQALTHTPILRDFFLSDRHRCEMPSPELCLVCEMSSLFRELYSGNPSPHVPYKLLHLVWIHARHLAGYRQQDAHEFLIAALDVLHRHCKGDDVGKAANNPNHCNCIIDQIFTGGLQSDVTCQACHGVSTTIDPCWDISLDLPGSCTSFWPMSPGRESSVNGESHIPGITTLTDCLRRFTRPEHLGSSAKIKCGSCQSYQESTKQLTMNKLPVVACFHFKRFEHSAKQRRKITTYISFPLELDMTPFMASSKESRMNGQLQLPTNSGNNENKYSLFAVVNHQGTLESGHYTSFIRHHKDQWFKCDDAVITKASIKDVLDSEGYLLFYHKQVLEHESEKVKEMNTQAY
Put plainly: DUBprofiler panel, USP27x alone. Format: biochemical. To be noted: 1 μM hD1, USP27x alone without other subunits. The protocol:
The human genome encodes about 80 active DUBs, 55 of which belong to the same USP structural family as USP22, thus presenting a challenge to the development of specific DUB inhibitors. […] The activity of each DUB was tested in the presence of a single concentration of inhibitor and compared with enzyme activity in the absence of compound. […] In this screen, however, USP27x alone was tested in the absence of other subunits.

In test [1] the target is USP22/ATXN7L3/ENY2/ATXN7 (hDUBm) (Homo sapiens, UniProt Q9UPT9). Put plainly: biochemical. The protocol:
(§1) Cleavage rates of 5 μM Ub-AMC were assayed for 75 nM USP22/ATXN7L3/ENY2/ATXN7 (hDUBm), 100 nM USP27x/ATXN7L3/ENY2, or 1000 nM USP51/ATXN7L3/ENY2. Rates were normalized to the uninhibited reaction in each case to determine the fraction of apparent activity.
(§2) DUB specificity assays Ubiquitin-rhodamine(110)-glycine cleavage rates were measured for all DUBs available in the DUBprofiler™ panel with two independent replicates (44 in total; Ubiquigent). […] USP22 was not included in the panel, and is not represented in FIG. 12A. […] Initial cleavage rates of each complex were measured on a fixed concentration of 5 μM Ub-AMC.
(§3) Heterotrimeric complexes containing USP27x and USP51 were purified, respectively, in complex with ENY2 and ATXN7L3. The activity of these complexes on Ub-AMC was compared to that of the human DUBm, which contains USP22, ENY2, ATXN7L3, and a fourth subunit, ATXN7, that anchors the DUBm to the rest of the SAGA complex.

A further test addresses T3, USP27x/ATXN7L3/ENY2 (Homo sapiens, UniProt A6NNY8).
T3 construct: made in house
T3 sequence (A6NNY8 1-438): T2 sequence (A6NNY8 1-438)
T3 sequence (Q14CW9 1-347 partner): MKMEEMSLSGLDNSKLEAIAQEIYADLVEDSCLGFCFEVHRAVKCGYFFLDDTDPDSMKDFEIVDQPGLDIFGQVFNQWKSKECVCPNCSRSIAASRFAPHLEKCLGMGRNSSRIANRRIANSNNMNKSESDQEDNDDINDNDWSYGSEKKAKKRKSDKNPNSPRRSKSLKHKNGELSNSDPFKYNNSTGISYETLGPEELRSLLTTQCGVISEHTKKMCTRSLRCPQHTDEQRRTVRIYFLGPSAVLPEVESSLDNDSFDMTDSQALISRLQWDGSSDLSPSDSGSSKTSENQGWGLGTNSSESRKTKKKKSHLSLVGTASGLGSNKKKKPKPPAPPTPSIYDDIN
T3 sequence (Q9NPA8 1-101 partner): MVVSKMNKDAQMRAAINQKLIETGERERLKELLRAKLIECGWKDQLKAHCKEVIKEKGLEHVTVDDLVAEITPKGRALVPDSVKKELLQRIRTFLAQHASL
Put plainly: Inhibition of H2B DUB complexes, Ub-AMC cleavage: USP27x complex. To be noted: 100 nM complex, 5 μM Ub-AMC. Format: biochemical. The protocol:
as §1, §2, §3

Sequence of USP22/ATXN7L3/ENY2/ATXN7 (hDUBm) (Q9UPT9 whole entry, one chain of several): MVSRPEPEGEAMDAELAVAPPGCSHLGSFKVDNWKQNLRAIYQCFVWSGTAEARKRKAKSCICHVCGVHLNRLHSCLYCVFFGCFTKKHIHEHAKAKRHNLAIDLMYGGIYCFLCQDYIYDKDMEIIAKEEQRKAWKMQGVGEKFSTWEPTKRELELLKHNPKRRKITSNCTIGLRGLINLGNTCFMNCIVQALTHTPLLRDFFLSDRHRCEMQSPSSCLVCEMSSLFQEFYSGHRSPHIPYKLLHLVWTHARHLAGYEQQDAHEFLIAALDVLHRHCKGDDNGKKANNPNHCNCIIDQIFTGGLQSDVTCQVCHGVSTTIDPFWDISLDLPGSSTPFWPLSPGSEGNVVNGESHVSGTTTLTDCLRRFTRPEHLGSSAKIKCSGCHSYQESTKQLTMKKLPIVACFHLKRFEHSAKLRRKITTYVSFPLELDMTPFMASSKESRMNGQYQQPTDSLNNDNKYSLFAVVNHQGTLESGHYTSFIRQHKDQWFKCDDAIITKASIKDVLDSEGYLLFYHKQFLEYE
Sequence of USP22/ATXN7L3/ENY2/ATXN7 (hDUBm) (O15265 3-151 partner limits assumed, one chain of several): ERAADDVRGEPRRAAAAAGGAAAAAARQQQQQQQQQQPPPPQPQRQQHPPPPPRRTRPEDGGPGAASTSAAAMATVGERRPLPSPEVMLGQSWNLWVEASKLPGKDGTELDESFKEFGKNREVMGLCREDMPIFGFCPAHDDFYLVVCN

For `CC[C@H](C)[C@@H]1NC(=O)[C@H](C)NC(=O)[C@@H](Cc2ccc(O)cc2)NC(=O)CSC[C@@H](C(N)=O)NC(=O)[C@H](CC(C)C)NC(=O)[C@H](CC(C)C)NC(=O)[C@H]([C@@H](C)O)NC(=O)[C@H]([C@@H](C)O)NC(=O)[C@H](CCCCN)NC(=O)CNC(=O)[C@H](CCCNC(=N)N)NC(=O)[C@H](Cc2ccc(O)cc2)NC(=O)[C@H](CO)NC1=O` [hD1] ({CH2CO}-[dY]AISYRGKTTLLC-NH2; thioether N-13), the “effect on USP30 activity” value at USP30 is on record as roughly 15%. Besides, at USP27x, the “reduction of USP27x activity” value is on record as roughly 50%. Moreover, the IC50 turned out to be 0.1 µM in test [1] and 3 µM on USP27x/ATXN7L3/ENY2.
